# Data as given in PubChem BioAssay AID1259408 (Genetic Toxicology Data Bank (GENE-TOX), 2018).
# The source made the active and inactive calls. How the calls were made is not given here.
# Tested on: GENE-TOX genotoxicity assays, various organisms and cells
# Assay: GENE-TOX mutagenicity studies
# Details: for call: Assay Type: In vivo carcinogenicity studies
# [1] = Species/Cell Type: Hordeum vulgare (barley), Assay Type: Chromosome aberrations, Assay Code: HOC+, Evaluation Type: Evaluation A (Pre-1980)
# [2] = Species/Cell Type: Human lymphocytes or leukocytes, Assay Type: Chromosome aberrations in vivo, Assay Code: CY8T, Evaluation Type: Evaluation A (Pre-1980)
# [3] = Species/Cell Type: Rodents, Sex: Male, Assay Type: Dominant lethal test, Assay Code: DLT-, Evaluation Type: Evaluation A (Pre-1980)
# [4] = Species/Cell Type: Bacillus subtilis (H17 vs M45T), Assay Type: Rec-assay, spot test, DNA effects (bacterial DNA repair), Assay Code: REXT, Evaluation Type: Evaluation A (Pre-1980)
# [5] = Species/Cell Type: Salmonella typhimurium (one or more of the five standard strains: TA98, TA100, TA1535, TA1537, and TA1538), Assay Type: Histidine reverse gene mutation, Ames assay, Assay Code: SAL+, Evaluation Type: Evaluation A (Pre-1980)
# [6] = Species/Cell Type: Nonhuman, Assay Type: Sister-chromatid exchange (SCE) in vitro, Assay Code: SC2T, Evaluation Type: Evaluation B (Post-1980)
# [7] = Species/Cell Type: Saccharomyces cerevisiae, Assay Type: Mitotic recombination or gene conversion, Assay Code: YEH-, Evaluation Type: Evaluation A (Pre-1980)
# [8] = Species/Cell Type: Salmonella typhimurium (one or more of the five standard strains: TA98, TA100, TA1535, TA1537, and TA1538), Assay Type: Histidine reverse gene mutation, Ames assay, Assay Code: SAL+*, Activation: With metabolic activation, Evaluation Type: Evaluation A (Pre-1980)
# [9] = Species/Cell Type: Nonhuman, Assay Type: Sister-chromatid exchange (SCE) in vitro, Assay Code: SC2+, Evaluation Type: Evaluation B (Post-1980)
structure (smiles),measurement,setting,value
CCN(CC)C(=O)[C@@H]1C=C2c3cccc4[nH]cc(c34)C[C@H]2N(C)C1,mutagenic call,"Species/Cell Type: Allium cepa, Assay Type: Chromosome aberrations, Assay Code: ALC+, Evaluation Type: Evaluation A (Pre-1980)",active; positive
same,mutagenic call,"Species/Cell Type: Arabidopsis species, Assay Type: Gene mutation, Assay Code: ARM-, Evaluation Type: Evaluation A (Pre-1980)",inactive; negative
same,mutagenic call,"Species/Cell Type: Drosophila melanogaster, Assay Type: Aneuploidy, partial sex chromosome loss, chromosome aberrations, Assay Code: DAP+M, Evaluation Type: Evaluation A (Pre-1980)",active; positive
same,mutagenic call,"Species/Cell Type: Drosophila melanogaster, Assay Type: Aneuploidy, sex chromosome gain, chromosome aberrations, Assay Code: DAG+M, Evaluation Type: Evaluation A (Pre-1980)",active; positive
same,mutagenic call,"Species/Cell Type: Drosophila melanogaster, Assay Type: Aneuploidy, whole sex chromosome loss, chromosome aberrations, Assay Code: DAC+M, Evaluation Type: Evaluation A (Pre-1980)",active; positive
same,mutagenic call,"Species/Cell Type: Drosophila melanogaster, Assay Type: Sex-linked recessive lethal gene mutation, Assay Code: SRL+, Evaluation Type: Evaluation A (Pre-1980)",active; positive
same,mutagenic call,"Species/Cell Type: Drosophila melanogaster, Sex: Male, Assay Type: Heritable translocation test, chromosome aberrations, Assay Code: DHT-, Evaluation Type: Evaluation A (Pre-1980)",inactive; negative
same,mutagenic call,[1],active; positive
same,mutagenic call,"Species/Cell Type: Human lymphocytes or leukocytes, Assay Type: Chromosome aberrations in vitro, Assay Code: CY7-, Evaluation Type: Evaluation A (Pre-1980)",inactive; negative
same,mutagenic call,[2],no conclusion
same,mutagenic call,"Species/Cell Type: Mammalian germ cells, Sex: Male, Assay Type: Chromosome aberrations in vivo, Assay Code: CY9-, Evaluation Type: Evaluation A (Pre-1980)",inactive; negative
same,mutagenic call,"Species/Cell Type: Mammalian oocytes or early embryo, Assay Type: Chromosome aberrations in vivo, Assay Code: CYO-, Evaluation Type: Evaluation A (Pre-1980)",inactive; negative
same,mutagenic call,"Species/Cell Type: Mammalian polychromatic erythrocytes, Assay Type: Micronucleus test, chromosome aberrations, Assay Code: MNTT, Evaluation Type: Evaluation A (Pre-1980)",no conclusion
same,mutagenic call,"Species/Cell Type: Nonhuman, Assay Type: Chromosome aberrations in vitro, Assay Code: CY&-, Evaluation Type: Evaluation A (Pre-1980)",inactive; negative
same,mutagenic call,[3],inactive; negative
same,mutagenic call,"Species/Cell Type: Vicia faba, Assay Type: Chromosome aberrations, Assay Code: VIC-, Evaluation Type: Evaluation A (Pre-1980)",inactive; negative
Cc1ncc(COP(=O)(O)O)c(C)c1O,mutagenic call,"Species/Cell Type: Human lymphocytes, Assay Type: Sister-chromatid exchange (SCE) in vitro, Assay Code: SCL+D, Dose Response: With dose response, Evaluation Type: Evaluation B (Post-1980)",active; positive
same,mutagenic call,"Species/Cell Type: Human, Assay Type: Sister-chromatid exchange (SCE) in vitro, Assay Code: SC1+D, Dose Response: With dose response, Evaluation Type: Evaluation B (Post-1980)",active; positive
O=S(=O)(O)c1ccc(N=Nc2c(O)ccc3ccccc23)c2ccccc12,mutagenic call,"Species/Cell Type: Bacillus subtilis (H17 vs M45), Assay Type: Rec-assay, spot test, DNA effects (bacterial DNA repair), Assay Code: REWT, Evaluation Type: Evaluation A (Pre-1980)",no conclusion
CCNC(=O)[C@@H]1CCCN1C(=O)[C@H](CCCN=C(N)N)NC(=O)[C@H](CC(C)C)NC(=O)[C@@H](Cc1c[nH]c2ccccc12)NC(=O)[C@H](Cc1ccc(O)cc1)NC(=O)[C@H](CO)NC(=O)[C@H](Cc1c[nH]c2ccccc12)NC(=O)[C@H](Cc1cnc[nH]1)NC(=O)[C@@H]1CCC(=O)N1,mutagenic call,"Species/Cell Type: Human, Sex: Male, Assay Type: Sperm morphology, Assay Code: SPH+, Evaluation Type: Evaluation A (Pre-1980)",active; positive
COC(=O)COc1ccc(Cl)cc1C,mutagenic call,"Species/Cell Type: Saccharomyces cerevisiae, Assay Type: Reverse gene mutation, Assay Code: YER+, Evaluation Type: Evaluation A (Pre-1980)",active; positive
C#C[C@]1(OC(C)=O)CC[C@H]2[C@@H]3CCC4=CC(=O)CC[C@@H]4[C@H]3CC[C@@]21C (tested in a mixture with another compound),mutagenic call,[3],inactive; negative
CC(=O)[O][Hg][c]1ccccc1,mutagenic call,"Species/Cell Type: Bacillus subtilis (H17 vs M45), Assay Type: Rec-assay, spot test, DNA effects (bacterial DNA repair), Assay Code: REW+, Evaluation Type: Evaluation A (Pre-1980)",active; positive
same,mutagenic call,"Species/Cell Type: Drosophila melanogaster, Assay Type: Aneuploidy, sex chromosome gain, chromosome aberrations, Assay Code: DAG+F, Evaluation Type: Evaluation A (Pre-1980)",active; positive
same,mutagenic call,"Species/Cell Type: Drosophila melanogaster, Assay Type: Aneuploidy, whole sex chromosome loss, chromosome aberrations, Assay Code: DAC+F, Evaluation Type: Evaluation A (Pre-1980)",active; positive
CC(=O)N(OS(=O)(=O)O)c1ccc2c(c1)Cc1ccccc1-2,mutagenic call,"Species/Cell Type: Drosophila melanogaster, Assay Type: Sex-linked recessive lethal gene mutation, Assay Code: SRLT, Evaluation Type: Evaluation A (Pre-1980)",no conclusion
O=S1(=O)OC(c2ccc(O)cc2)(c2ccc(O)cc2)c2ccccc21,mutagenic call,[4],no conclusion
O[C@@H]1[C@H]2O[C@H]2c2cc3c(ccc4ccccc43)cc2[C@H]1O,mutagenic call,"Species/Cell Type: Chinese hamster lung (V79) cells, Assay Type: Forward gene mutation at the HPRT or ouabain locus, Assay Code: V79+, Evaluation Type: Evaluation A (Pre-1980)",active; positive
same,mutagenic call,[5],active; positive
c1ccc2c(c1)c1cccc3ccc4cccc2c4c31,mutagenic call,"Species/Cell Type: Chinese hamster lung (V79) cells, Assay Type: Forward gene mutation at the HPRT or ouabain locus, Assay Code: V79-, Evaluation Type: Evaluation A (Pre-1980)",inactive; negative
same,mutagenic call,"Species/Cell Type: Escherichia coli polA (W3110 vs P3478), Assay Type: Rec-assay, DNA effects (bacterial DNA repair), Assay Code: RE2-, Evaluation Type: Evaluation A (Pre-1980)",inactive; negative
same,mutagenic call,"Species/Cell Type: Escherichia coli polA (W3119 vs P3478), Assay Type: Rec-assay, DNA effects (bacterial DNA repair), Assay Code: RE1T, Evaluation Type: Evaluation A (Pre-1980)",no conclusion
same,mutagenic call,"Species/Cell Type: Fischer rat embryo (RLV/1706) cells, Assay Type: Cell transformation, viral enhanced, Assay Code: CTR-, Evaluation Type: Evaluation A (Pre-1980)",inactive; negative
same,mutagenic call,"Species/Cell Type: Human diploid fibroblasts, Assay Type: Unscheduled DNA synthesis (UDS) in vitro, DNA effects, Assay Code: UDH+*, Activation: With metabolic activation, Evaluation Type: Evaluation A (Pre-1980)",active; positive
same,mutagenic call,"Species/Cell Type: Mouse (BALB/c-3T3) cells, Assay Type: Cell transformation, Assay Code: CTB-, Evaluation Type: Evaluation A (Pre-1980)",inactive; negative
same,mutagenic call,"Species/Cell Type: Mouse lymphoma (L5178Y) cells, Assay Type: Forward gene mutation at the thymidine kinase (TK) locus, chromosome aberrations, Assay Code: L51T, Evaluation Type: Evaluation A (Pre-1980)",no conclusion
same,call,"Species/Cell Type: Nonhuman, Assay Code: CCGT, Evaluation Type: Evaluation A (Pre-1980)",no conclusion
same,mutagenic call,[6],no conclusion
same,mutagenic call,"Species/Cell Type: Nonhuman, Assay Type: Sister-chromatid exchange (SCE) in vivo, Assay Code: SC3+, Evaluation Type: Evaluation B (Post-1980)",active; positive
same,mutagenic call,"Species/Cell Type: Nonhuman, Assay Type: Sister-chromatid exchange (SCE) in vivo, Assay Code: SC3T, Evaluation Type: Evaluation A (Pre-1980)",no conclusion
same,mutagenic call,[7],inactive; negative
same,mutagenic call,[8],active; positive
same,mutagenic call,"Species/Cell Type: Syrian hamster embryo (SHE) cells, Assay Type: Cell transformation, clonal assay, Assay Code: CTC-, Evaluation Type: Evaluation A (Pre-1980)",inactive; negative
Nc1ccc2ccc3cccc4ccc1c2c34,mutagenic call,[8],active; positive
O=C1c2ccccc2C(=O)c2c(NCCNCCO)ccc(O)c21,mutagenic call,[9],active; positive
C=C/C=C/C=C/C#CC#C/C=C/C,mutagenic call,[6],no conclusion
O[C@@H]1[C@H]2O[C@H]2c2cc3ccc4cccc5ccc(c2[C@H]1O)c3c45,mutagenic call,[5],active; positive
O=C(CCCCCCCCC(=O)N1CC1)N1CC1,mutagenic call,[1],active; positive
same,mutagenic call,"Species/Cell Type: Vicia faba, Assay Type: Chromosome aberrations, Assay Code: VIC+D, Dose Response: With dose response, Evaluation Type: Evaluation A (Pre-1980)",active; positive
Cc1ccccc1N=Nc1c(N)ccc2ccccc12,mutagenic call,[4],no conclusion
CN(C)c1ccc(Cc2ccc(N(C)C)cc2)cc1,mutagenic call,"Species/Cell Type: Escherichia coli polA (W3119 vs P3478), Assay Type: Rec-assay, DNA effects (bacterial DNA repair), Assay Code: RE1+, Evaluation Type: Evaluation A (Pre-1980)",active; positive
same,mutagenic call,"Species/Cell Type: Fischer rat embryo (RLV/1706) cells, Assay Type: Cell transformation, viral enhanced, Assay Code: CTR+, Evaluation Type: Evaluation A (Pre-1980)",active; positive
same,mutagenic call,"Species/Cell Type: Human diploid fibroblasts, Assay Type: Unscheduled DNA synthesis (UDS) in vitro, DNA effects, Assay Code: UDH-, Evaluation Type: Evaluation A (Pre-1980)",inactive; negative
same,call,"Species/Cell Type: Nonhuman, Assay Code: CCG+, Evaluation Type: Evaluation A (Pre-1980)",active; positive
same,mutagenic call,[9],active; positive
same,mutagenic call,[7],inactive; negative
same,mutagenic call,"Species/Cell Type: Salmonella typhimurium, Assay Type: Forward and reverse gene mutation, host-mediated assay, Assay Code: HMA+, Evaluation Type: Evaluation A (Pre-1980)",active; positive
same,mutagenic call,"Species/Cell Type: Syrian hamster embryo (SHE) cells, Assay Type: Cell transformation, clonal assay, Assay Code: CTC+, Evaluation Type: Evaluation A (Pre-1980)",active; positive
c1ccc2c(c1)ccc1ncccc12,mutagenic call,[8],active; positive
[Cd],mutagenic call,[2],no conclusion
same,call,"Species/Cell Type: Nonhuman, Assay Code: CCG+L, Evaluation Type: Evaluation A (Pre-1980)",active; positive
